# In patent US6866861B1, “Method and composition for enhancing milk component concentrations” (Land O'Lakes, Inc., priority 1999, dated 2005):
# System: cows
# Experiment: Abomasal infusion of glycerol in cows, different cows (Example 5)
# Type: in vivo, cow
# Conditions: for Fat / Lactose / Total Solids / True Protein: 150 g/cow/day abomasal, average of 3 cows
# Protocol: To determine the weight percent total solids, wet basis, in a sample, the actual weight of total solids is determined by analyzing the sample in accordance with Method #925.23 (33.2.09) of Official Methods of Analysis, Association of Official Analytical Chemists (AOAC) (16th Ed., 1995). The weight percent total solids, wet basis, is then calculated by dividing the actual weight of total solids by the actual weight of the sample. The weight percent of true protein, wet basis, for a particular sample is calculated after first determining the wet basis weight percent of total Kjeldahl nitrogen and the wet basis weight percent of non-protein nitrogen in the sample. The wet basis weight percent of total Kjeldahl nitrogen in the sample is determined using the method referenced above. The wet basis weight percent of non-protein nitrogen (NPN) in the sample is determined in accordance with Method #991.21 (33.2.12) of Official Methods of Analysis, Association of Official Analytical Chemists (AOAC) (16th Ed., 1995). The weight percent of true protein, wet basis, in the sample is then determined by subtracting the wet basis weight percent of non-protein nitrogen in the sample from the wet basis weight percent of total Kjeldahl nitrogen in the sample. To determine the weight percent lactose, wet basis, in a liquid sample, the weight of the liquid sample is first determined. The actual weight of lactose in the liquid sample may then be determined using analysis kit number 176-303, that is available from Boehringer-Mannheim of Indianapolis, Ind. in accordance with the procedural instructions included with analysis kit number 176-303. The weight percent lactose, wet basis, in the liquid sample is then calculated by dividing the actual weight of lactose in the liquid sample by the actual weight of the liquid sample. To determine the weight percent fat, wet basis, in a sample, the actual weight of fat in the sample is determined in accordance with Method #974.09 (33.7.18) of Official Methods of Analysis, Association of Official Analytical Chemists (AOAC) (16th Ed., 1995). The weight percent fat, wet basis, is then calculated by dividing the actual weight of fat in the sample by the actual weight of the sample. In this example, glycerol was abomasally infused into three different cows at a rate of 150 grams per cow per day during a 14 day test period. The cows used in this Example were different from the cows used in Example 4. The rations provided to the cows during the period extending from day 0, prior to abomasal infusion of glycerol, through day 14 of the test period were the same. The only difference in feeding of the cows between day 0 and days 1-14 of the test period were that during days 1-14 the cows were abomasally infused with the dosage of 150 grams of glycerol per cow per day. The glycerol was not combined with any other materials prior to being abomasally infused into the cattle. Milk from the three cows was collected and analyzed prior to infusion (on day 0) and also was collected and analyzed on the third, seventh and fourteenth day of the test period. The results presented in Table 5 below for each milk component for each particular day are averages for the milk collected from the three different cows. The net change for the different milk components presented in Table 5 was calculated by averaging the results of days 3, 7 and 14 for a particular milk component and subtracting the results presented for day 0 for the particular milk component.
# [1] = milk, average of days 3, 7, 14 minus day 0
compound,measurement,setting,value
OCC(O)CO [glycerol],"weight percent of fat, true protein, lactose, and total solids in the milk (conclusion in words)","abomasal infusion, 14 day test period",net increase
same,Fat,"milk, Day 3",3.39 Wt %
same,Lactose,"milk, Day 3",4.86 Wt. %
same,Total Solids,"milk, Day 3",12.04 Wt. %
same,True Protein,"milk, Day 3",3.04 Wt. %
same,Fat,"milk, Day 7",3.25 Wt %
same,Lactose,"milk, Day 7",5.19 Wt. %
same,Total Solids,"milk, Day 7",12.17 Wt. %
same,True Protein,"milk, Day 7",2.98 Wt. %
same,Fat,"milk, Day 14",3.32 Wt %
same,Lactose,"milk, Day 14",4.87 Wt. %
same,Total Solids,"milk, Day 14",11.99 Wt. %
same,True Protein,"milk, Day 14",3.05 Wt. %
same,"Fat, Net Change",[1],+0.25 Wt %
same,"Lactose, Net Change",[1],+0.08 Wt. %
same,"Total Solids, Net Change",[1],+0.44 Wt. %
same,"True Protein, Net Change",[1],+0.10 Wt. %
